Like-named read-outs stand apart in the source and are kept apart here.
Columns and labels:
[1] = Example 1: plasma pharmacokinetics of Compound 1 alone and coadministered with RTV in healthy subjects; assay type: in vivo, human; conditions: 100 mg
Excerpt: The study was an open-label, fixed-sequence, crossover, pharmacokinetic study with 12 subjects. The subjects were healthy males and non-pregnant, nonlactating females between 18 and 45 years of age, inclusive. The duration of the study was 20 days, with Period 1 of Days 1 to 10 and Period 2 of days 11 to 20. Follow-up contact was on day 27.

[2] = Example 1: multiple-dose safety of Compound 1 alone and with RTV; assay type: in vivo, human
Method: The single-dose and multiple-dose pharmacokinetics of Compound 1 were also determined. The multiple-dose safety of Compound 1 administered alone and with RTV was also determined. Safety: Safety was evaluated by assessment of clinical laboratory tests at baseline and at various time points during the study; periodic physical examinations, including vital signs; and documentation of adverse events throughout the study. Safety: No statistical inference was performed for safety data in this pharmacokinetic study.

HIV-1 = assay: Example 2: antiviral activity (HIV-1 RNA reduction) and exposure-response in subjects infected with HIV-1; assay type: in vivo, human
Method: At screening, subjects were to have a plasma HIV-1 RNA load of ≧10,000 to ≦300,000 copies/mL and a CD4+ cell count of ≧200 cells/mm^3.
Safety, tolerability, pharmacokinetics, and efficacy were monitored through Day 21 after dosing. […] The placebo group in Cohort 5 also received 100 mg of RTV.
The duration of the study was 21 days, with 10 days of treatment and 11 days of follow-up. […] Matching placebo was administered orally under fed conditions. For Cohort 5 only, 100 mg RTV capsules were coadministered orally under fed conditions.
Efficacy: The primary efficacy endpoint was the maximum HIV-1 RNA reduction (log10 copies/mL) from baseline through Day 11. The maximum reduction for an individual subject was the maximum drop among changes from baseline between Days 2 and 11.
The 2 subjects who received placebo+100 mg RTV were treated as a separate group. HIV-1 RNA values below the detection limit (50 copies/mL) were entered as 49 copies/mL.

[3] = human, in vivo
Method: Safety, tolerability, pharmacokinetics, and efficacy were monitored through Day 21 after dosing. The active treatments in the 5 cohorts were as follows: […] The duration of the study was 21 days, with 10 days of treatment and 11 days of follow-up. […] Matching placebo was administered orally under fed conditions. For Cohort 5 only, 100 mg RTV capsules were coadministered orally under fed conditions. […] Pharmacokinetics: The pharmacokinetic parameters of Compound 1 in plasma and peripheral blood mononuclear cells were summarized using descriptive statistics.

[4] = human, in vivo; remark: listed apart in the source
Method: Safety, tolerability, pharmacokinetics, and efficacy were monitored through Day 21 after dosing. The active treatments in the 5 cohorts were as follows: […] Safety: Adverse events, vital signs, electrocardiogram, ophthalmologic examination, and clinical laboratory tests were evaluated for safety. Safety: The proportion of subjects with adverse events was summarized by treatment, system organ class and preferred term for treatment-emergent adverse events, treatment-related adverse events, serious adverse events, and adverse events leading to study drug discontinuation. Adverse events were coded using the Medical Dictionary for Regulatory Activities (MedDRA®) version 8.1. […] Laboratory results were expressed on the original measurement scale and in terms of the toxicity grade. Changes from baseline in quantitative laboratory tests were summarized by visit.

[5] = Example 3: Compound 1 pharmacokinetics at a range of RTV doses; assay type: in vivo, human; conditions: Compound 1 125 mg QD + 200 mg RTV; mean
Method: (§1) The effects of a range of RTV doses (20, 50, 100, and 200 mg once daily) on hepatic cytochrome P450 3A (CYP3A) activity were also evaluated using a CYP3A substrate.
(§2) A randomized, open label, single-center, multiple-dose, two group, Phase 1 study was conducted (24 subjects (16 evaluable) subjects in two groups; 12 (8 evaluable) in each group) with an approximately even distribution of healthy male and non-pregnant, non-lactating female subjects aged between 18-45, inclusive
(§3) The population mean slope was estimated along with a corresponding 90% CI. This study was performed in compliance with the guidelines of Good Clinical Practices (GCPs).

[6] = in vivo
Method: Pharmacokinetic (PK) blood draws were performed on days 7, 17, and 27.

[7] = Example 4: safety of FTC/TDF and Compound 1/r; assay type: in vivo, human; conditions: Compound 1/r and their co-administration
[8] = Example 5: pharmacokinetic drug-drug interaction of zidovudine and Compound 1/r; assay type: in vivo, human; conditions: for AUCtau, Cmax, Ctau (Compound 1 only) 90% CI of GMR (co-administration:alone): Compound 1/r 200/100 mg QD plus ZDV 300 mg BID, with a meal, bounds 70% to 143%
Excerpt: Zidovudine is a NRTI used in HIV patients.

[9] = Example 7: effect of food on pharmacokinetics of Compound 1 in Japanese male healthy volunteers; assay type: in vivo, human; conditions: 400 mg
Method: Subjects in the 400 mg fasted cohort received an additional 400 mg dose with breakfast after a washout period (generally a minimum of ten days after the initial administration). The interval of ten days between the two doses was considered appropriate for eliminating any within subject carryover effects. […] Doses were administered at similar times for each subject in each treatment period. […] Plasma samples were isolated from healthy subjects administered with Compound 1. The plasma samples were extracted by solid phase extraction using Empore™ Disk Plate (C8SD), and then measured by high-performance liquid chromatography/tandem mass spectrometry (LC/MS/MS) (HPLC model 2795 separations module from Waters; mass spectrometer model API4000 from MDS SCIEX). Ionization and detection were performed with electrospray ionization and positive ion detection with multiple reaction monitoring, respectively. […] To 50 μL of plasma samples spiked with […] each of 90% acetonitrile and 20 mmol/L ammonium formate-formic acid buffer (pH 3.0)/acetonitrile (10:90, v/v), 10 μL each of internal standard solution was added. To these samples, 200 μL of 0.1% formic acid in 10% acetonitrile was added. These solutions were then mixed for 10 seconds and centrifuged at 10,000 rpm for 5 minutes at 4° C. […] Then, 10 μL of each solution was injected into the LC/MS/MS system and analyzed.

[10] = Example 7: safety of single 400 mg dose of Compound 1; assay type: in vivo, human; conditions: single oral dose, Japanese male healthy volunteers
Method: The subjects were admitted to the medical institution in the afternoon on the day before administration (“Day −1”). […] The subjects were discharged the day after administration (“Day 2”). Thus, the subjects were hospitalized for a total of three days. Follow up assessment for safety was performed 6 to 8 days after administration (“Days 7 to 9”).

[11] = test system: hepatic cytochrome P450 3A (CYP3A) activity; assay: Example 3: IV midazolam (MDZ) pharmacokinetics as probe for CYP3A activity at a range of RTV doses; conditions: for AUCinf: MDZ 1 mg IV, mean
Method: as §1, §2
For MDZ: AUC0-last, AUCinf, % AUCexp, Clast, Tlast, λz, T1/2, CL and Vz.
as §3

[12] = Example 3: RTV pharmacokinetics when dosed with Compound 1; assay type: in vivo, human; conditions: RTV 100 mg QD with Compound 1; mean (CV %)
Method: as §1, §2, §3

[13] = after administration of Compound 1+RTV

COc1cc2c(cc1Cc1cccc(Cl)c1F)c(=O)c(C(=O)O)cn2[C@H](CO)C(C)C [Compound 1, 6-(3-chloro-2-fluorobenzyl)-1-[(2S)-1-hydroxy-3-methylbutan-2-yl]-7-methoxy-4-oxo-1,4-dihydroquinoline-3-carboxylic acid]
mean steady-state systemic exposure (AUCtau, Day 10) lower compared with mean exposure (AUCinf) after a single dose (Day 1) ([1]; Compound 1 alone, indicating autoinduction): approximately 20% | AUC ([1]; both sexes, human, plasma, po): 908 ng·h/mL | serious adverse events ([2]; Compound 1 alone and Compound 1+RTV, whole study): No serious adverse events occurred | subjects with treatment-emergent AEs considered related to study drugs [2, 13]: 5 of 12 subjects | treatment-related AEs reported in more than one subject [2, 13]: nausea (three subjects), vomiting (two subjects), headache (two subjects), and pruritus (two subjects) | subjects with treatment-emergent AEs considered related to study drugs ([2]; after administration of Compound 1 alone): 2 of 12 subjects | tolerability ([2]; concurrent oral Compound 1 100 mg twice daily and RTV 100 mg twice daily for up to 10 days): generally well-tolerated | subjects experiencing nausea (most frequent treatment-emergent AE) ([2]; during administration of Compound 1+RTV): 4 subjects | subjects with treatment-emergent adverse events ([2]; during administration of Compound 1+RTV, each 100 mg twice daily): 7 of 12 subjects | subjects with treatment-emergent adverse events ([2]; during administration of Compound 1 alone, 100 mg twice daily): 4 of 12 subjects | tolerability ([2]; oral Compound 1 100 mg twice daily for up to 20 days): well tolerated | Emax (reduction from baseline, simple Emax model) (HIV-1; Compound 1 Ctau versus HIV-1 RNA reduction): 2.32 log10 copies/mL | HIV-1 RNA levels compared with placebo (HIV-1; all dose levels, 10 consecutive days): significantly reduced HIV-1 RNA levels | enhancement of exposure [3]: 10 to 16 fold | changes in hematology and urinalysis findings, vital signs, body weight, electrocardiogram and ophthalmic examinations [4]: No clinically relevant changes | dose interruptions, discontinuations, or serious adverse events [4]: no dose interruptions, discontinuations, or serious adverse events | tolerability [4]: generally well tolerated | AUCtau [5]: 20600 ng·h/mL | PK (Cmax, AUCtau, Ctau) during co-administration versus alone [6]: unaffected | serious adverse events or discontinuations due to AEs [7]: no serious adverse events | Half-life ([8]; human, in vivo): supporting once daily dosing | AUC0-inf higher in the fed state compared to the fasted state [9]: 2.69 fold | Cmax higher in the fed state compared to the fasted state [9]: 3.30 fold | electrocardiogram (ECG) changes [10]: No clinically significant electrocardiogram (ECG) changes were noted | safety and tolerability [10]: safe and well tolerated with no serious adverse events

Cc1cn([C@H]2C[C@H](N=[N+]=[N-])[C@@H](CO[C@@H]3O[C@H](C(=O)O)[C@@H](O)[C@H](O)[C@H]3O)O2)c(=O)[nH]c1=O [G-ZDV]
AUCtau, Cmax, Ctau (Compound 1 only) 90% CI of GMR (co-administration:alone) [8]: within predefined PK equivalence bounds

Cc1ncc2n1-c1ccc(Cl)cc1C(c1ccccc1F)=NC2 [MDZ, midazolam]
AUCinf ([11]; +20 mg RTV QD with Compound 1 125 mg): 101 ng·h/mL | AUCinf ([11]; +50 mg RTV QD with Compound 1 125 mg): 145 ng·h/mL | AUCinf ([11]; +100 mg RTV QD with Compound 1 125 mg): 219 ng·h/mL | AUCinf ([11]; +200 mg RTV QD with Compound 1 125 mg): 146 ng·h/mL | AUCinf ([11]; MDZ alone (Day 1)): 31.0 ng·h/mL | CL ([11]; MDZ +20 mg RTV): 2.38 mL/min/kg | Clast ([11]; MDZ +20 mg RTV): 1.53 ng/mL | Half-life ([11]; MDZ +20 mg RTV): 7.83 h | CL ([11]; MDZ +50 mg RTV): 1.5 mL/min/kg | Clast ([11]; MDZ +50 mg RTV): 2.51 ng/mL | Half-life ([11]; MDZ +50 mg RTV): 14.4 h | CL ([11]; MDZ +100 mg RTV): 1.2 mL/min/kg | Clast ([11]; MDZ +100 mg RTV): 3.34 ng/mL | Half-life ([11]; MDZ +100 mg RTV): 22.4 h | CL ([11]; MDZ +200 mg RTV): 1.45 mL/min/kg | Clast ([11]; MDZ +200 mg RTV): 2.58 ng/mL | Half-life ([11]; MDZ +200 mg RTV): 15.2 h | CL ([11]; MDZ alone): 7.45 mL/min/kg | Clast ([11]; MDZ alone): 0.20 ng/mL | Half-life ([11]; MDZ alone): 3.97 h

CC(C)c1nc(CN(C)C(=O)N[C@H](C(=O)N[C@@H](Cc2ccccc2)C[C@H](O)[C@H](Cc2ccccc2)NC(=O)OCc2cncs2)C(C)C)cs1 [Ritonavir, (2S,3S,5S)-5-(N—(N—((N-Methyl-N-((2-isopropyl-4-thiazolyl)methyl)amino)-carbonyl)-L-valinyl)amino)-2-(N-((5-thiazolyl)methoxycarbonyl)amino)-1,6-diphenyl-3-hydroxyhexane]
Half-life [12]: 6.34 (18.4) hr

Cc1cn([C@H]2C[C@H](N=[N+]=[N-])[C@@H](CO)O2)c(=O)[nH]c1=O [ZDV, zidovudine, reference compound]
AUCtau, Cmax, Ctau (Compound 1 only) 90% CI of GMR (co-administration:alone) [8]: within predefined PK equivalence bounds

Source: patent US20090233964A1, “METHODS FOR IMPROVING THE PHARMACOKINETICS OF HIV INTEGRASE INHIBITORS” (priority 2005, published 2009)
